Tested on: Bronchospasm
Assay: antibronchoconstrictory activity, technique of Konzett and Rossler (histamine bronchospasm, i.v.)
Type: in vivo, tricoloured guinea pigs
Settings: guinea pig; for Duration: duration of action
Method: The antibronchoconstrictory activity was investigated on tricoloured guinea pigs according to the technique of Konzett and Rossler. The animals are anaesthetised with ethylcarbamate and, after tracheotomy, are artifically respirated at constant volume; whereby the intratracheal pressure is recorded continuously. Histamine (5 μg.kg^-1, i.v.) is administered before and at various time-intervals after treatment with the substance to be studied. The activity of the product administered intravenously is evaluated by comparing the amplitudes of the bronchospasms before and after treatment and calculating the percentage variation and the duration of action.

[1] = Cavia porcellus, iv, dose 5 mg, histamine 5 μg/kg i.v.
[2] = dose 5 mg, histamine 5 μg/kg i.v.
[3] = Cavia porcellus, iv, dose 0.05 mg, histamine 5 μg/kg i.v.
[4] = dose 0.05 mg, histamine 5 μg/kg i.v.
[5] = Cavia porcellus, iv, dose 0.25 mg, histamine 5 μg/kg i.v.
[6] = dose 0.25 mg, histamine 5 μg/kg i.v.
[7] = Cavia porcellus, iv, dose 0.1 mg, histamine 5 μg/kg i.v.
[8] = dose 0.1 mg, histamine 5 μg/kg i.v.

For `COC(CN1CCCC1)c1ccc(C)nc1` (stereo not drawn) [Compound 1], the inhibition in vivo at 5 mg [1] was 56.5% and the Duration [2] was greater than 60 min.

For `COC(CN1CCN(c2ccc(F)cc2)CC1)c1ccc(C)nc1` (stereo not drawn) [Compound 2], the inhibition in vivo at 0.05 mg [3] was 85%, the Duration [4] was greater than 120 min and the “antibronchoconstrictory activity (intensity and duration of action), in words” value (“antibronchoconstrictory activity” below) (histamine bronchospasm) was “excellent activity”.

Work on `COC(CN1CCOCC1)c1ccc(C)nc1` (stereo not drawn) [Compound 3] yielded an inhibition in vivo at 5 mg [1] of 50% and a Duration [2] greater than 15 min.

With `COC(CN1CCN(c2ccccc2)CC1)c1ccc(C)nc1` (stereo not drawn) [Compound 6, 1-[2-Methoxy-2-(6-methyl-3-pyridyl)-ethyl]-4-phenyl-piperazine] the inhibition in vivo at 0.025 mg (Cavia porcellus, iv, dose 0.025 mg, histamine 5 μg/kg i.v.) was 90%, the ED50 (Cavia porcellus, iv, histamine bronchospasm) was 1.9 µg/kg and the Duration (dose 0.025 mg, histamine 5 μg/kg i.v.) was greater than 120 min. For the same molecule, the “antibronchoconstrictory activity” value (histamine bronchospasm) was “excellent activity”.

In the case of `COc1ccccc1N1CCN(CC(OC)c2ccc(C)nc2)CC1` (stereo not drawn) [Compound 7, 1-[2-Methoxy-2-(6-methyl-3-pyridyl)-ethyl]-4-(2-methoxy-phenyl)-piperazine], the inhibition in vivo at 0.25 mg [5] is reported as 97%, the Duration [6] is reported as greater than 60 min and the “antibronchoconstrictory activity” value (histamine bronchospasm) is reported as “excellent activity”.

With `CCOc1ccccc1N1CCN(CC(OC)c2ccc(C)nc2)CC1` (stereo not drawn) [Compound 8] the inhibition in vivo at 0.1 mg [7] was 95%, the Duration [8] was greater than 15 min and the “antibronchoconstrictory activity” value (histamine bronchospasm) was “excellent activity”.

In the case of `COC(CN1CCN(c2ccccc2)CC1)c1cnc(C)cn1` (stereo not drawn) [Compound 9], the inhibition in vivo at 0.25 mg [5] is reported as 98% and the Duration [6] is reported as 30 min.

`CCOC(CN1CCN(c2ccccc2)CC1)c1ccc(C)nc1` (stereo not drawn) [Compound 10] was tested, and the inhibition in vivo at 1 mg (Cavia porcellus, iv, dose 1 mg, histamine 5 μg/kg i.v.) was 100% and the Duration (dose 1 mg, histamine 5 μg/kg i.v.) was greater than 60 min.

Work on `CCOC(CN1CCN(c2ccccc2OC)CC1)c1ccc(C)nc1` (stereo not drawn) [Compound 11] yielded an inhibition in vivo at 0.25 mg [5] of 100% and a Duration [6] greater than 60 min.

`COC(CN1CCN(c2ccc(F)cc2)CC1)c1cnc(C)cn1` (stereo not drawn) [Compound 12] was tested, and the inhibition in vivo at 0.5 mg (Cavia porcellus, iv, dose 0.5 mg, histamine 5 μg/kg i.v.) was 91% and the Duration (dose 0.5 mg, histamine 5 μg/kg i.v.) was greater than 60 min.

For `COC(CN1CCN(c2ccccc2)CC1)c1nccnc1C.O=C(O)/C=C/C(=O)O` (stereo not drawn) [Compound 14, 1-[2-Methoxy-2-(3-methyl-2-pyrazinyl)-ethyl]-4-phenyl-piperazine fumarate salt], the inhibition in vivo at 5 mg [1] was 82% and the Duration [2] was 45 min.

In the case of `COc1ccc(N2CCN(CC(OC)c3ccc(C)nc3)CC2)c(OC)c1` (stereo not drawn) [Compound 15], the inhibition in vivo at 0.05 mg [3] is reported as 80%, the Duration [4] is reported as 60 min and the “antibronchoconstrictory activity” value (histamine bronchospasm) is reported as “excellent activity”.

For `COC(CN1CCN(c2ccccc2C)CC1)c1ccc(C)nc1` (stereo not drawn) [Compound 16], the inhibition in vivo at 0.1 mg [7] was 79%, the Duration [8] was 45 min and the “antibronchoconstrictory activity” value (histamine bronchospasm) was “excellent activity”.
